Data reported in US8394791B2, “Crystalline, enantiomerically pure salt form of a beta-agonist, and the use thereof as a drug” (Boehringer Ingelheim International GmbH, priority 2008, dated 2013).

Key:
[1] = Sorption profile (DVS sorption balance), hygroscopic characteristics; format: physicochemical; conditions: relative humidity range between 10-90%; crystalline form
Procedure: Sorption Profile (DSV Diagram, Kinetic & Isothermic Plot, FIG. 3)
Technical Data Relating to the Sorption Balance Used:
DVS-1 made by Surface Measurement Systems (=SMS) for analysing the hygroscopic characteristics; humidity profile of 10-90% r.h. In 10% steps, recording both a sorption and a desorption profile, weight: 10-20 mg

Thermoanalysis (DSC/TG) = format: physicochemical; conditions: heating rate 10 K/min, crystalline form (FIG. 2)
Procedure: Thermoanalysis (DSC/TG Diagram, FIG. 2)
Technical Data Relating to the Thermoanalytical DSC Device Used:
DSC 822 made by Mettler Toledo; heating rate: 10 K/min; type of crucible: perforated aluminium crucible; atmosphere: N2, 80 ml/min flux; weight: 3-10 mg.
Technical Data Relating to the Thermoanalytical TG Device Used:
TGA/SDTA 851 Made by Mettler Toledo with IR coupling (Nicolet FT-IR 4700) for analysing the volatile fractions driven off; heating rate: 10 K/min; type of crucible: open aluminium oxide crucible; atmosphere: N2, 20 ml/min flux; weight: 15-25 mg.

water absorption [1]: less than 0.5 wt. % | thermally stable at a thermal load of up to (Thermoanalysis (DSC/TG)): up to 210 °C
SMILES: CCC1(CC)OC(=O)N(CCC(C)(C)NC[C@H](O)c2ccc(O)c(NS(C)(=O)=O)c2)c2ccccc21 [compound 1, N-(5-{(R)-2-[3-(4,4-diethyl-2-oxo-4H-benzo[d][1,3]oxazin-1-yl)-1,1-dimethyl-propylamino]-1-hydroxy-ethyl}-2-hydroxy-phenyl)-methanesulphonamide]
